{"source": "patent US7914891B2", "about": "“Wipes including microencapsulated delivery vehicles and phase change materials” (Kimberly-Clark Worldwide, Inc., priority 2005, dated 2011)", "key": {"[1]": {"assay": "Heat generation after soaking in de-ionized water", "format": "physicochemical", "details": "in 7.0 grams de-ionized water; coated samples crushed after 0.5 to 2.0 hours", "procedure": "To analyze the samples for heat generation, 0.80 grams of each sample of calcium chloride including a moisture protective layer was added to four separate vials each containing 7.0 grams of de-ionized water and 0.73 grams of the control sample was added to a fifth vial containing 7.0 grams of de-ionized water. Using a J type thermocouple (commercially available from Omega Engineering, Inc., Stamford, Conn.) and a data logger, the temperature of the samples was measured over a period of 180 seconds. The four vials containing the samples of microencapsulated heat delivery vehicle including a moisture protective layer were allowed to remain in the de-ionized water for 0.5 hours, 1.0 hour, 1.5 hours, and 2.0 hours, respectively, at which time the samples were activated by crushing the samples by hand using a metal rod. The temperature of the water in the four vials was measured for a period of 180 seconds after crushing the samples."}, "[2]": {"system": "Methicillin-resistant Staphylococcus aureus", "details": "22° C. compared to 50° C.; 0.005% active PHMB", "procedure": "This Example utilized 1.5-milliliter tubes containing a 1-milliliter blend of phosphate-buffered saline (pH 7.2) and 5% (w/v) bovine serum albumin soil. The tubes were placed in electric heat blocks set for 22° C., 30° C., 40° C. and 50° C., respectively. The tubes remained in the electric heat blocks for approximately 10 minutes.\nAfter 10 minutes, 0.005% (by weight) active polyhexamehtylene biguanide (PHMB) (commercially available as Cosmocil® CQ from Arch Biocides, Inc., United Kingdom) was added to two tubes at each temperature level. Duplicate tubes without PHMB at each temperature were also made.\nThe tubes were then vortexed and Methicillin-resistant Staphylococcus aureus (approximately 1×10^5 colony forming units (CFU)) was then added to each tube. All of the tubes were then placed back into the heat blocks at their respective temperatures.\nFollowing a 10-minute contact time, 0.1 milliliters of each sample was transferred to 0.9 milliliters letheen broth to neutralize the PHMB activity. The letheen samples were then plated in duplicate on Tryptic Soy agar plates using a WASP2 spiral plater (commercially available from Don Whitley Scientific, Ltd., Yorkshire, United Kingdom). The plates were inverted and incubated at 37±2° C. for 48 hours.\nAfter 48 hours, the plates were evaluated using a total plate count to determine the biocidal efficacy of each sample."}, "[3]": {"details": "35 wt % in mineral oil, added to 7.0 grams de-ionized water", "procedure": "All five samples were then individually added to 7.0 grams de-ionized water and the resulting temperature rise was measured using a Barnant Scanning Thermocouple (available from Therm-X of California, Hayward, Calif.).\nAll four samples were then added to 7.0 grams de-ionized water and the resulting temperature rise was measured using a J type Thermocouple (available from Omega Engineering, Inc., Stamford, Conn.)."}}, "note": "Read-outs that look alike come from different tables or passages of the source.", "data": [{"compound": "[Ca+2].[Cl-].[Cl-]", "note": "[Example 11 control sample, calcium chloride]", "values": [{"measurement": "heat generation after contact with water", "setting": "[1]", "value": "produced heat immediately upon being introduced into water but only for a short period of time"}]}, {"compound": "polyhexamethylene biguanide [PHMB]", "values": [{"measurement": "LOG10 difference in efficacy", "setting": "[2]", "value": "greater than 1.4 LOG10"}]}, {"compound": "[Ca+2].[Cl-].[Cl-]", "note": "[anhydrous calcium chloride, calcium chloride]", "values": [{"measurement": "rate of heat generation", "setting": "[3]; particle size 149-355 micrometers vs four other size ranges", "value": "generated heat at the highest rate"}]}, {"compound": "[Cl-].[Cl-].[Mg+2]", "note": "[anhydrous magnesium chloride, magnesium chloride]", "values": [{"measurement": "rate of heat generation", "setting": "[3]; particle size less than 250 micrometers vs three other size ranges", "value": "generated heat at the highest rate"}]}]}
